{"source": "ChEMBL document CHEMBL5136998", "about": "“Chasing a Breath of Fresh Air in Cystic Fibrosis (CF): Therapeutic Potential of Selective HDAC6 Inhibitors to Tackle Multiple Pathways in CF Pathophysiology” (J Med Chem, 2022)", "key": {"Histone deacetylase 7": {"target": "T1, Histone deacetylase 7 (Homo sapiens, UniProt Q8WUI4)", "T1 sequence (Q8WUI4 whole entry)": "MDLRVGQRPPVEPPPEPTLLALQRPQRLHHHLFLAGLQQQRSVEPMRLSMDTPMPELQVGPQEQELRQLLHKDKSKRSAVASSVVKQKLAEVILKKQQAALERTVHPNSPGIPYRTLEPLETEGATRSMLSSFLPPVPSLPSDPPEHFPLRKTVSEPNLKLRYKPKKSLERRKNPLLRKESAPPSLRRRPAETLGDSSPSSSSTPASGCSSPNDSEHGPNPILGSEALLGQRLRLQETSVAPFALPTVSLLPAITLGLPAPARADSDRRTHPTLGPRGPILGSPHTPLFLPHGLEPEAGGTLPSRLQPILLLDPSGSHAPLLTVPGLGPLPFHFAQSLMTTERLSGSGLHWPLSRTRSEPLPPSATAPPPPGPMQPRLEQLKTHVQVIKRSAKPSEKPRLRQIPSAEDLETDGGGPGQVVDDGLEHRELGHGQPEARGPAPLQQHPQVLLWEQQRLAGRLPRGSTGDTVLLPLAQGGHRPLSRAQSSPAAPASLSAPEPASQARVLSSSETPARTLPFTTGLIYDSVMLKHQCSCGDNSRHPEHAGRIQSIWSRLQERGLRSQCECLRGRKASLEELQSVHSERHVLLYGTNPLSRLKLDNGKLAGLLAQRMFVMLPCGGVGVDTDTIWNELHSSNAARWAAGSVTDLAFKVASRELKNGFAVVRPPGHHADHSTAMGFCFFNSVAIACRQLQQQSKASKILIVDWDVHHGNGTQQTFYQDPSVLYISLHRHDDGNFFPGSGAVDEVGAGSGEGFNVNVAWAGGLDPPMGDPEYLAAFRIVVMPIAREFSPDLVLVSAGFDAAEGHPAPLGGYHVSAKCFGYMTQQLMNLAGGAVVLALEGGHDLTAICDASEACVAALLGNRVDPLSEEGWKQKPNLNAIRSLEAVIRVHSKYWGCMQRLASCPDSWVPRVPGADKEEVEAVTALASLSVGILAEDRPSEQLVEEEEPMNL", "assay": "Inhibition of HDAC7 (unknown origin)"}, "Histone deacetylase 1 [1]": {"target": "T2, Histone deacetylase 1 (Homo sapiens, UniProt Q13547)", "T2 sequence (Q13547 whole entry)": "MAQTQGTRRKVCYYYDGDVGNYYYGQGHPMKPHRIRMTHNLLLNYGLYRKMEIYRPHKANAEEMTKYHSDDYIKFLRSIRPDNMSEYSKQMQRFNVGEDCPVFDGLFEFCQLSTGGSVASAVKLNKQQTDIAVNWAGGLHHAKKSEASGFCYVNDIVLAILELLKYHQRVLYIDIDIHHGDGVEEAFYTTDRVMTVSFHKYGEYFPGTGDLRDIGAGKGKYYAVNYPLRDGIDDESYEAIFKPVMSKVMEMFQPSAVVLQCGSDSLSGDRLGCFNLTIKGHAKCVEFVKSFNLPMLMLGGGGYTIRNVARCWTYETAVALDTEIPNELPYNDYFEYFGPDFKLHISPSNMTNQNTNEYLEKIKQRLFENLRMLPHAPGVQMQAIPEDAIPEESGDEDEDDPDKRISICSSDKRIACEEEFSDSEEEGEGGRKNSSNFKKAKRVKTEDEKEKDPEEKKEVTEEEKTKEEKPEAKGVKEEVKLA", "assay": "Inhibition of HDAC1 (unknown origin)"}, "Histone deacetylase 2 [2]": {"target": "T3, Histone deacetylase 2 (Homo sapiens, UniProt Q92769)", "T3 sequence (Q92769 whole entry)": "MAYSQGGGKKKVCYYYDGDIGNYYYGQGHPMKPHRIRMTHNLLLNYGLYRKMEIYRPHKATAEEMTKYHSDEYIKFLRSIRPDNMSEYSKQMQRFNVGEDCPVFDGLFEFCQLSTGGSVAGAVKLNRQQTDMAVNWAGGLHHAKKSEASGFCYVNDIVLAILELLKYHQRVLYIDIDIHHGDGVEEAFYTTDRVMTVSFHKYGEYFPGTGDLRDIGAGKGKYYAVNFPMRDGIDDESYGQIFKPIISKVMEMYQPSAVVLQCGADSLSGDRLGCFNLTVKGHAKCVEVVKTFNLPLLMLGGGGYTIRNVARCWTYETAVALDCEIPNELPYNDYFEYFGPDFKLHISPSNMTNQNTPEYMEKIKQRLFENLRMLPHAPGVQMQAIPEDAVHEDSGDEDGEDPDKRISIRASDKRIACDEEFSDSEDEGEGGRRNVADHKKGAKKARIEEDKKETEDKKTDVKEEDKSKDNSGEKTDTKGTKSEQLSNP"}, "[3]": {"target": "Histone deacetylase 4 (Homo sapiens) (UniProt P56524)", "sequence (P56524 whole entry)": "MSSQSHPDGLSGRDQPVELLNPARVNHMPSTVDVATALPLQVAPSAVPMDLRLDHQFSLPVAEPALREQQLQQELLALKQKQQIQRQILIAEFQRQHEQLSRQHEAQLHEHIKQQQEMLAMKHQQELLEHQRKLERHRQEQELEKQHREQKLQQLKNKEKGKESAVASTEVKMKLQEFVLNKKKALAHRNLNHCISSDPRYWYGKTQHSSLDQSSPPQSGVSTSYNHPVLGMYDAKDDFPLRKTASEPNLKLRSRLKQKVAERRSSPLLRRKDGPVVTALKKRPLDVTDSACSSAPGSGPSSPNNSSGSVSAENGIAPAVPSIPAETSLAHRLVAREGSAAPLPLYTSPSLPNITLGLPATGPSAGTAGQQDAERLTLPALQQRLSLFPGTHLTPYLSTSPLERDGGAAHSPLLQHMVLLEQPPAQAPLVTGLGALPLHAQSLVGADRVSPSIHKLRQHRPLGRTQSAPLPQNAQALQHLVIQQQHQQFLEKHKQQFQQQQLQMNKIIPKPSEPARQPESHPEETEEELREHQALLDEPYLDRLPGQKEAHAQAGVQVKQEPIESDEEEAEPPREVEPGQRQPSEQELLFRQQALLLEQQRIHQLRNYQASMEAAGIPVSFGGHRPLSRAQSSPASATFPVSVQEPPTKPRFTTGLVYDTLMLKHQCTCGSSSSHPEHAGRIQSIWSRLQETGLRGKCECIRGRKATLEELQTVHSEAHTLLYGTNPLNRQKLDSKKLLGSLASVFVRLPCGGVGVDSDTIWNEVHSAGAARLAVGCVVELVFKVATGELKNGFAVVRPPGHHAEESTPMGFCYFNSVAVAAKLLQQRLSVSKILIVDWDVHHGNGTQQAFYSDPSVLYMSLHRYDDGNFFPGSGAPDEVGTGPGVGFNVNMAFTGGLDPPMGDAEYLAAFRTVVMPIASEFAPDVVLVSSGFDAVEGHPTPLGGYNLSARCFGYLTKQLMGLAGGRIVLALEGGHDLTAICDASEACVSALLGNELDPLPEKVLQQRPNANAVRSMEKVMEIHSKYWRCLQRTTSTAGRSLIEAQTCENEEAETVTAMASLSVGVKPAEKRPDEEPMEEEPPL", "assay": "Inhibition of human HDAC4 at 100 uM relative to control"}, "[4]": {"target": "T4, Protein deacetylase HDAC6 (Homo sapiens) (UniProt Q9UBN7)", "T4 sequence (whole entry)": "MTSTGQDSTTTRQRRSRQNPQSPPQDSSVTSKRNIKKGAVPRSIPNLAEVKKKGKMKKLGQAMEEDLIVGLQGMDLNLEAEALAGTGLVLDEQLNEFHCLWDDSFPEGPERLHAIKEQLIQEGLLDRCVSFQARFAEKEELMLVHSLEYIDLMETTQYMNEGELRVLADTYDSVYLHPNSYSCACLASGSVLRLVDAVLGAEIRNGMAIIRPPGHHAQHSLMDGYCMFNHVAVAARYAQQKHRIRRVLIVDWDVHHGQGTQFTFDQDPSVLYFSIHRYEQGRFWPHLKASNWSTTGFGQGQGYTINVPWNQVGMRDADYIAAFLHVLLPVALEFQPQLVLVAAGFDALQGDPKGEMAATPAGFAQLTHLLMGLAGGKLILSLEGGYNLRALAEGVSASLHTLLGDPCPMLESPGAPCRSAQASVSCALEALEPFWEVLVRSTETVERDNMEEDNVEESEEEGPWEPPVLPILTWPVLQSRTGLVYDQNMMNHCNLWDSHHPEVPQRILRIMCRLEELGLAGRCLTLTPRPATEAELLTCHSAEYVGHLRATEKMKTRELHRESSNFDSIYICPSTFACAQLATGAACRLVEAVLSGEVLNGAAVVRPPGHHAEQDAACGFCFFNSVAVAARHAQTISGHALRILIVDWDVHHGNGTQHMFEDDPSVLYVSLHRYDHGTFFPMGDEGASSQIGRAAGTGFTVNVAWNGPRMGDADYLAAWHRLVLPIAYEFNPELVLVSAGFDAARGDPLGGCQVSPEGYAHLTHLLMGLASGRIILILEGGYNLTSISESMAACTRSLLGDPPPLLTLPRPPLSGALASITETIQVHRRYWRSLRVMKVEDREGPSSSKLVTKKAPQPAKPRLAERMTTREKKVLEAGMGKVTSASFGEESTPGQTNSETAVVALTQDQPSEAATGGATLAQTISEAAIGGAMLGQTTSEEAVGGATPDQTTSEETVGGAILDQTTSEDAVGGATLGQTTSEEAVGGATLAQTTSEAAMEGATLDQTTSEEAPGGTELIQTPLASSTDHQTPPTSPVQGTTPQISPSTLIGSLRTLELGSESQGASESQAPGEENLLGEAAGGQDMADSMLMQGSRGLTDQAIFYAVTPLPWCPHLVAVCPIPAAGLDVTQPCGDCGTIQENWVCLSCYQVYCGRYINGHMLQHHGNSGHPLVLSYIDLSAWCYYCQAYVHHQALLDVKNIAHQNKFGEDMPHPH", "assay": "Inhibition of HDAC6 derived from human HeLa cell nuclear extract at 100 uM incubated for 2 hrs relative to control", "type": "cell-free"}, "Histone deacetylase 2 [5]": {"target": "T3, Histone deacetylase 2", "assay": "Inhibition of human HDAC2 at 100 uM relative to control"}, "Histone deacetylase 1 [6]": {"target": "T2, Histone deacetylase 1", "assay": "Inhibition of HDAC1 derived from human HeLa cell nuclear extract at 100 uM incubated for 2 hrs relative to control", "type": "cell-free"}, "Histone deacetylase 3": {"target": "Histone deacetylase 3 (Homo sapiens, UniProt O15379)", "sequence (O15379 whole entry)": "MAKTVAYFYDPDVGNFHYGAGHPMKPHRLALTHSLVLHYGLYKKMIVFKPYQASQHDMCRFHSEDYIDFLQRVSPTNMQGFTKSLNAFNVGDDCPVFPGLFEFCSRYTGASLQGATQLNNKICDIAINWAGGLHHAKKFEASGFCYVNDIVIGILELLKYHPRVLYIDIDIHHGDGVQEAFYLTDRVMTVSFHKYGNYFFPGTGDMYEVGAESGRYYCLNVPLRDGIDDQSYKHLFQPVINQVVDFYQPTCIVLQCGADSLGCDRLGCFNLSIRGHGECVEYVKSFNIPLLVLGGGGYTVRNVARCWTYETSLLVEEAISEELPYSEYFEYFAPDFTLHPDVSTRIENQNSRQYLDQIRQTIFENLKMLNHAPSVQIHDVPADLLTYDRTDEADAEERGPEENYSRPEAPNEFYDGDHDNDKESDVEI", "assay": "Inhibition of HDAC3 (unknown origin)"}, "Histone deacetylase 8": {"target": "T5, Histone deacetylase 8 (Homo sapiens, UniProt Q9BY41)", "T5 sequence (Q9BY41 whole entry)": "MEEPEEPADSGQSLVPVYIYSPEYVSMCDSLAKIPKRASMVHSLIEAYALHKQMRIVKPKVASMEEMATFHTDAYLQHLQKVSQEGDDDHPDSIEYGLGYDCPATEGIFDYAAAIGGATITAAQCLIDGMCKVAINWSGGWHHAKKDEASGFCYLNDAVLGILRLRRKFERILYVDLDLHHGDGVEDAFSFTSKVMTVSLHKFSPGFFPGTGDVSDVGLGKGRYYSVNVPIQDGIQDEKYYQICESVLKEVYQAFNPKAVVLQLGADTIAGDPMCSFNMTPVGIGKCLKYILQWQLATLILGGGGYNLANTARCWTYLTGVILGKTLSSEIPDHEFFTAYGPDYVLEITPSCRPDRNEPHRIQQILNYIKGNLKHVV", "assay": "Inhibition of HDAC8 (unknown origin)"}, "[7]": {"target": "T6, Protein deacetylase HDAC6 (Homo sapiens, UniProt Q9UBN7)", "T6 sequence (Q9UBN7 whole entry)": "T4 sequence (whole entry)", "assay": "Inhibition of HDAC6 (unknown origin)"}, "Histone deacetylase 1 [8]": {"target": "T2, Histone deacetylase 1", "assay": "Inhibition of human recombinant HDAC1 using fluorogenic substrate"}, "[9]": {"assay": "Inhibition of human recombinant HDAC3/NcoR2 using RHKKAc as substrate"}}, "data": [{"molecule": "CCCC(=O)O", "note": "[BUTYRIC ACID]", "values": [{"measurement": "IC50", "setting": "Histone deacetylase 7", "value": 300, "unit": "µM"}, {"measurement": "IC50", "setting": "Histone deacetylase 1 [1]", "value": 300, "unit": "µM"}, {"measurement": "IC50", "setting": "Histone deacetylase 2 [2]", "value": 400, "unit": "µM"}]}, {"molecule": "Oc1ccc(/C=C/c2cc(O)cc(O)c2)cc1", "values": [{"measurement": "inhibition", "setting": "[3]", "value": 23, "unit": "%"}, {"measurement": "inhibition", "setting": "[4]", "value": 32, "unit": "%"}, {"measurement": "inhibition", "setting": "Histone deacetylase 2 [5]", "value": 21, "unit": "%"}, {"measurement": "inhibition", "setting": "Histone deacetylase 1 [6]", "value": 39, "unit": "%"}]}, {"molecule": "CC(C)(C)OC(=O)Nc1cccc(C(=O)/C=C/c2ccc(/C=C/C(=O)NO)cc2)c1", "values": [{"measurement": "IC50", "setting": "Histone deacetylase 3", "value": 10.8, "unit": "µM"}, {"measurement": "IC50", "setting": "Histone deacetylase 8", "value": 1.2, "unit": "µM"}, {"measurement": "IC50", "setting": "Histone deacetylase 2 [2]", "value": 2.1, "unit": "µM"}, {"measurement": "IC50", "setting": "[7]", "value": 0.011, "unit": "µM"}]}, {"molecule": "O=C(O)CCCc1ccccc1", "note": "[SODIUM PHENYLBUTYRATE]", "values": [{"measurement": "IC50", "setting": "Histone deacetylase 1 [8]", "value": 162, "unit": "µM"}]}, {"molecule": "C[C@@H]1CN(Cc2ccc(C(=O)NO)cc2)C[C@H](C)N1Cc1cccc(Cl)c1", "values": [{"measurement": "IC50", "setting": "Histone deacetylase 1 [1]", "value": 11.4, "unit": "µM"}, {"measurement": "IC50", "setting": "[7]", "value": 0.041, "unit": "µM"}]}, {"molecule": "CN1CCc2c(c3ccccc3n2Cc2ccc(C(=O)NO)cc2)C1", "note": "[TUBASTATIN A]", "values": [{"measurement": "IC50", "setting": "[9]", "value": "> 30", "unit": "µM"}]}]}
